According to US8334261B2, “Osteopenia animal model” (Oriental Yeast Co., Ltd., priority 2006, dated 2012):

Experiments:
Assay type in all cases: in vivo, mouse
[1] = system: 7-week-old female C57BL/6N mice; experiment: Evaluation of a bone mass increase with PTH (GST-RANKL, ovariectomy)
Protocol: GST-RANKL was administered twice to groups of 7-week-old female C57BL/6N mice at 1 mg/kg every 24 hours. Ovariectomy was performed 24 hours after the 2nd administration. In addition, parathyroid hormone (PTH) was subcutaneously administered thereto at 160 μg/kg from 24 hours after the ovariectomy for 10 consecutive days. Further, a group obtained by PBS administration and sham operation (Sham) was designated as a control group for comparison. The serum markers and the femur bone density were measured.

[2] = system: GST-RANKL-administered 7-week-old female C57BL/6N mice; experiment: Evaluation of a bone mass increase with low-dose PTH in GST-RANKL mice
Protocol: GST-RANKL was intraperitoneally administered 2 times to groups of 7-week-old female C57BL/6N mice at 1 mg/kg every 24 hours. PTH was subcutaneously administered thereto at 40 or 80 μg/kg from 24 hours after the 2nd administration every 24 hours for 10 consecutive days. In addition, PBS was administered to a group serving as the control group for the GST-RANKL and PTH administration groups for comparison. The serum and femur were collected from each mouse 24 hours after the end of administration for 10 days.
The serum collected from each mouse was subjected to measurement of serum bone resorption markers (Ca and TRAP-5b) and an osteogenesis marker (ALP). Each femur was subjected to measurement of the total bone density, the cortical bone density, the cortical bone thickness, the cortical bone mineral content, and the cortical bone density in the diaphysis with pQCT at points 0.6, 0.8, and 1.0 mm […] the distal growth plate on the proximal side. In addition, image analysis was carried out with micro CT.

[3] = system: GST-RANKL-administered 7-week-old female C57BL/6N mice; experiment: as above; details: PTH 80 μg/kg; 1.0 mm

parathyroid hormone [PTH]
bone density decrease ([1]; PTH 160 μg/kg administered to the GST-RANKL+Sham group, p<0.05): significantly suppressed
femur bone density ([1]; PTH 160 μg/kg administered to the PBS+Sham group): significantly increased exclusively at the 1.0-mm point
femur bone density increase ([1]; PTH 160 μg/kg in the OVX group): no significant difference
serum TRAP-5b concentration, fold as high as the relevant group not treated with PTH ([1]; every PTH administration group, 160 μg/kg s.c. 10 consecutive days): approximately 1.5 fold
cortical bone density in the diaphysis, increase in GST-RANKL group ([2]; PTH 40 μg/kg): 3%
serum ALP concentration in GST-RANKL group ([2]; PTH 40 μg/kg): tended to decrease
cancellous bone density increase in GST-RANKL group vs PBS ([2]; PTH 40 μg/kg, 0.6 mm): 25%
cortical bone mineral content increase in GST-RANKL group vs PBS ([2]; PTH 40 μg/kg, 0.6 mm): 80%
cortical bone thickness increase in GST-RANKL group vs PBS ([2]; PTH 40 μg/kg, 0.6 mm): 86%
total bone density increase in GST-RANKL group vs PBS ([2]; PTH 40 μg/kg, 0.6 mm): 14%
cancellous bone density increase in GST-RANKL group vs PBS ([2]; PTH 40 μg/kg, 0.8 mm): 28%
cortical bone density increase in GST-RANKL group vs PBS ([2]; PTH 40 μg/kg, 0.8 mm): 4%
cortical bone mineral content increase in GST-RANKL group vs PBS ([2]; PTH 40 μg/kg, 0.8 mm): 123%
cortical bone thickness increase in GST-RANKL group vs PBS ([2]; PTH 40 μg/kg, 0.8 mm): 127%
total bone density increase in GST-RANKL group vs PBS ([2]; PTH 40 μg/kg, 0.8 mm): 17%
cortical bone density increase in GST-RANKL group vs PBS ([2]; PTH 40 μg/kg, 1.0 mm): 5%
cortical bone mineral content increase in GST-RANKL group vs PBS ([2]; PTH 40 μg/kg, 1.0 mm): 100%
cortical bone thickness increase in GST-RANKL group vs PBS ([2]; PTH 40 μg/kg, 1.0 mm): 98%
total bone density increase in GST-RANKL group vs PBS ([2]; PTH 40 μg/kg, 1.0 mm): 19%
cortical bone density in the diaphysis, increase in GST-RANKL group ([2]; PTH 80 μg/kg): 3%
cancellous bone density increase in GST-RANKL group ([2]; PTH 80 μg/kg, 0.6 mm): 20%
cortical bone mineral content increase in GST-RANKL group ([2]; PTH 80 μg/kg, 0.6 mm): 46%
cortical bone thickness increase in GST-RANKL group ([2]; PTH 80 μg/kg, 0.6 mm): 50%
total bone density increase in GST-RANKL group ([2]; PTH 80 μg/kg, 0.6 mm): 10%
cortical bone mineral content increase in GST-RANKL group ([2]; PTH 80 μg/kg, 0.8 mm): 83%
cortical bone thickness increase in GST-RANKL group ([2]; PTH 80 μg/kg, 0.8 mm): 89%
total bone density increase in GST-RANKL group ([2]; PTH 80 μg/kg, 0.8 mm): 13%
cortical bone mineral content increase in GST-RANKL group ([2]; PTH 80 μg/kg, 1.0 mm): 77%
cortical bone thickness increase in GST-RANKL group ([2]; PTH 80 μg/kg, 1.0 mm): 79%
total bone density increase in GST-RANKL group ([2]; PTH 80 μg/kg, 1.0 mm): 13%
serum ALP concentration in GST-RANKL group ([2]; PTH 80 μg/kg, p<0.01): significantly decreased
serum Ca concentration in GST-RANKL group ([2]; PTH 80 μg/kg, p<0.05): slightly significant decrease
serum TRAP-5b concentration ([2]; PTH 40 or 80 μg/kg s.c. 10 days): no significant changes
cortical bone density increase in GST-RANKL administration group [3]: 3%
